Laboratory results: patent US20100298141A1, “SUBSTITUTED PYRIDINE N-OXIDE HERBICIDES” (E. I. DU PONT DE NEMOURS AND COMPANY, priority 2007, published 2010)

Experiments:
Assay in all cases: Test H preemergence mixtures of compound 2 with crop safeners
Details in all cases: Test H, alone
Italian ryegrass (LOLMU) = type: in vivo, Lolium multiflorum; set-up: key to LOLMU Obsd. (observed effect): observed % effect, visually evaluated vs controls
Excerpt: (§1) Seeds of test plants consisting of winter wheat (TRZAW, Triticum aestivum), corn (ZEAMD, Zea mays cv. ‘Pioneer 33G26’), giant foxtail (SETFA, Setaria faberi), and Italian ryegrass (LOLMU, Lolium multiflorum) were planted into a blend of loam soil and sand and treated preemergence with a directed soil spray using test chemicals formulated in a non-phytotoxic solvent mixture that included a surfactant. Seeds of small-seeded species were planted about 1 cm deep; larger seeds were planted about 2.5 cm deep. […] Balanced fertilizer was applied through the watering system. Treatments consisted of Compound 2 and the above mentioned safeners alone and in combination using a spray volume of 457 L/ha. Each treatment was replicated four times. Treated plants and controls were maintained in a greenhouse for 14 to 21 days, after which time all species were compared to controls and visually evaluated. […] A dash (-) response means no test result. Colby's Equation was used to determine the herbicidal effects expected from the mixtures. Colby's Equation (Colby, S. […] wherein • Pa+b is the percentage effect of the mixture expected from additive contribution of the individual components, • Pa is the observed percentage effect of the first active ingredient at the same use rate as in the mixture, and • Pb is the observed percentage effect of the second active ingredient at the same use rate as in the mixture.

corn (ZEAMD) = type: in vivo, Zea mays cv. ‘Pioneer 33G26’; set-up: key to ZEAMD Obsd. (observed effect): observed % effect, visually evaluated vs controls
Excerpt: as §1

giant foxtail (SETFA) = type: in vivo, Setaria faberi; set-up: key to SETFA Obsd. (observed effect): observed % effect, visually evaluated vs controls
Excerpt: as §1

winter wheat (TRZAW) = type: in vivo, Triticum aestivum; set-up: key to TRZAW Obsd. (observed effect): observed % effect, visually evaluated vs controls
Excerpt: as §1

| Compound | LOLMU Obsd. (observed effect) (Italian ryegrass (LOLMU); 8 g a.i./ha) | LOLMU Obsd. (observed effect) (Italian ryegrass (LOLMU); 16 g a.i./ha) | LOLMU Obsd. (observed effect) (Italian ryegrass (LOLMU); 31 g a.i./ha) | ZEAMD Obsd. (observed effect) (corn (ZEAMD); 8 g a.i./ha) | ZEAMD Obsd. (observed effect) (corn (ZEAMD); 16 g a.i./ha) | ZEAMD Obsd. (observed effect) (corn (ZEAMD); 31 g a.i./ha) | SETFA Obsd. (observed effect) (giant foxtail (SETFA); 8 g a.i./ha) | SETFA Obsd. (observed effect) (giant foxtail (SETFA); 16 g a.i./ha) | SETFA Obsd. (observed effect) (giant foxtail (SETFA); 31 g a.i./ha) | TRZAW Obsd. (observed effect) (winter wheat (TRZAW); 8 g a.i./ha) | TRZAW Obsd. (observed effect) (winter wheat (TRZAW); 16 g a.i./ha) | TRZAW Obsd. (observed effect) (winter wheat (TRZAW); 31 g a.i./ha) |
| --- | --- | --- | --- | --- | --- | --- | --- | --- | --- | --- | --- | --- |
| CCOC(=O)C1=NN(c2ccc(Cl)cc2Cl)C(C)(C(=O)OCC)C1 (stereo not drawn) [mefenpyr-diethyl] | 3 | 0 | 0 | 0 | 0 | 0 | 0 | 0 | 1 | 0 | 0 | 0 |
| O=C1OC(=O)c2cccc3cccc1c23 [naphthalic anhydride, 1,8-naphthalic anhydride] | 13 | 0 | 0 | 0 | 0 | 0 | 0 | 0 | 0 | 3 | 0 | 0 |
